Reference: publication PMC11697083 (Nature Communications, 2025)

How the values were obtained:
Format in all cases: biochemical
KIF18A = target: T1, KIF18A (Homo sapiens, UniProt Q8NI77); experiment: ADP-Glo ATPase assay at varied ATP
T1 sequence (Q8NI77 1-374): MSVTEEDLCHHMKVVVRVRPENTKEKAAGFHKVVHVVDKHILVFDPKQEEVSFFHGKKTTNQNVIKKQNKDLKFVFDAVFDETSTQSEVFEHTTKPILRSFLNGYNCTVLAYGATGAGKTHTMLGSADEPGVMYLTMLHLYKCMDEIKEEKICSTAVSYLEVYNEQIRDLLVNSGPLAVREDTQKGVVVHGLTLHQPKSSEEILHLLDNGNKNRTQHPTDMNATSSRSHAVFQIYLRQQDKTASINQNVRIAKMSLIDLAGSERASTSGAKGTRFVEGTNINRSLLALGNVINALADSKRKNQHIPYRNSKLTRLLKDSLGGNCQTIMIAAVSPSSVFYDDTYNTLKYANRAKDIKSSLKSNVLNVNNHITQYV

KIF19 = target: T2, KIF19 (Homo sapiens, UniProt Q2TAC6); experiment: ADP-Glo ATPase assay
T2 sequence (Q2TAC6 1-998): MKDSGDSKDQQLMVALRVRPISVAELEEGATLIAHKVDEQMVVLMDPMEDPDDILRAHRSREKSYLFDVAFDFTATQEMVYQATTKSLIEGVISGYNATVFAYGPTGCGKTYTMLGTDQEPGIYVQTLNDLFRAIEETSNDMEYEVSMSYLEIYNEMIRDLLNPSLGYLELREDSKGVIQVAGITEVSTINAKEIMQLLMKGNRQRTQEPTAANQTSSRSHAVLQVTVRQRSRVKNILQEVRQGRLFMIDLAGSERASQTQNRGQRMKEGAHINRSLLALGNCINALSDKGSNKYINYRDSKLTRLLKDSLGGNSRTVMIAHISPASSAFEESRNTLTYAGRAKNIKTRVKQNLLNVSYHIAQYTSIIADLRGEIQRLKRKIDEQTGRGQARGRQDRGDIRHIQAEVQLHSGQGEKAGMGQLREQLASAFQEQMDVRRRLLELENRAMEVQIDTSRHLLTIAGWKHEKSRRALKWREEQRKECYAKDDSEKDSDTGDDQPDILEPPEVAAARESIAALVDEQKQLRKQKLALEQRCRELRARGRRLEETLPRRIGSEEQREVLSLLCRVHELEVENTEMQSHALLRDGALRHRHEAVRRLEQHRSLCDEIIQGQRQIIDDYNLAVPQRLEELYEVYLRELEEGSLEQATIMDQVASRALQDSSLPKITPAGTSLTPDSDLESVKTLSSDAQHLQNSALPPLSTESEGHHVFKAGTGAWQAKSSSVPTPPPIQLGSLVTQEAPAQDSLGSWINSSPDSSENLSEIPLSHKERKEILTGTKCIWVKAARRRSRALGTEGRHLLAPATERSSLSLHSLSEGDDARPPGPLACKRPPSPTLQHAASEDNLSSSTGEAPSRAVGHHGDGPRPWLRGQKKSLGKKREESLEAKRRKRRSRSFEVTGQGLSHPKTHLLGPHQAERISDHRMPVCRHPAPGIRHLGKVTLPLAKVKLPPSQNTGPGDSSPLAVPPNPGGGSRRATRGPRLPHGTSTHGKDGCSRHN

Murine KIF18A = target: T3, Murine KIF18A (Mus musculus, UniProt Q91WD7); experiment: ADP-Glo ATPase assay
T3 sequence (Q91WD7 1-886): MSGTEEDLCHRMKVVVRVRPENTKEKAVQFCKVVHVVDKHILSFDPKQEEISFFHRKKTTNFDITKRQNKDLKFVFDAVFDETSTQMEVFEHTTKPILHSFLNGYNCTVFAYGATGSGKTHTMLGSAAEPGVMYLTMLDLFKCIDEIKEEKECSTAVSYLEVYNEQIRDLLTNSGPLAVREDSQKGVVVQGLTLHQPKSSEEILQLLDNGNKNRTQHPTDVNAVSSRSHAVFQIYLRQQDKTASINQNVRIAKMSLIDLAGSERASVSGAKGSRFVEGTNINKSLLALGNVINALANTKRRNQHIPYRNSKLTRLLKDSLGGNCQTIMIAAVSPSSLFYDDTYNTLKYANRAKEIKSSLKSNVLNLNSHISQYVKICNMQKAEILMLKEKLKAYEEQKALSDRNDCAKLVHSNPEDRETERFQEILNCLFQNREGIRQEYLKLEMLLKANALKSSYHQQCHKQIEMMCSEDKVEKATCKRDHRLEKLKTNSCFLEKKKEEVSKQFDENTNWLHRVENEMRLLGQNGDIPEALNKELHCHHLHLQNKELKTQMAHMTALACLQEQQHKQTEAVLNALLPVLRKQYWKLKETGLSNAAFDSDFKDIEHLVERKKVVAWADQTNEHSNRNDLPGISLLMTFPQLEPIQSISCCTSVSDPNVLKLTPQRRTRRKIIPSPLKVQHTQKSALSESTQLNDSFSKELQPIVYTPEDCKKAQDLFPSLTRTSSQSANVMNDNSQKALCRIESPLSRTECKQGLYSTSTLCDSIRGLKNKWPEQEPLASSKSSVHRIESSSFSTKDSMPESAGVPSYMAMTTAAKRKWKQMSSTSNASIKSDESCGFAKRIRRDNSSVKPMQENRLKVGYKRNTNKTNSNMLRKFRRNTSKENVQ

| SMILES | IC50 (KIF18A) [nM] | IC50 (KIF19) [nM] | IC50 (Murine KIF18A) [nM] |
| --- | --- | --- | --- |
| O=[N+]([O-])c1cc(Cl)ccc1S(=O)(=O)c1ccccc1 [BTB-1] | 2200 |  |  |
| CC(C)(C)NS(=O)(=O)c1cccc(C(=O)N2CC3(CCC4(CC4)CC3)c3cc(NS(C)(=O)=O)ccc32)c1 [compound 11, N-(tert-butyl)-3-(5”-(methylsulfonamido)dispiro[cyclopropane-1,1’-cyclohexane-4’,3”-indoline]-1”-carbonyl)benzenesulfonamide] |  | 280 | 8.8 |
